Test results as given in patent US7910556B2, “PAR-2 agonist” (Kowa Company, Ltd., priority 2004, dated 2011).
Read-outs that look alike come from different tables or passages of the source. Square brackets hold non-standard residues; d marks the D form. Ends that are not written are not given here. Peptide text beside a SMILES is read from it. * marks the point of attachment. Arg(NO2) = N=C(NCCC[C@H](N)C(=O)O)N[N+](=O)[O-]; NHCH2CH2(piperidin-1-yl) = C1CCN(CCN*)CC1; Benzofuran(2-CO) = O=C(c1cc2ccccc2o1)*; Imidazole4carbonyl = O=C(c1cnc[nH]1)*; Isoxazole(3-carbonyl) = O=C(c1ccon1)*; Cha = N[C@@H](CC1CCCCC1)C(=O)O; Nicotinoyl = O=C(c1cccnc1)*; Picolinoyl = O=C(c1ccccn1)*; 2Furoyl = O=C(c1ccco1)*; X1 = Cc1cc(C(=O)*)oc1C; X2 = O=C(c1ccc(Br)o1)*; Bz = O=C(c1ccccc1)*

T1: PAR-2 (Homo sapiens, UniProt P55085)
T1 sequence (P55085 26-397): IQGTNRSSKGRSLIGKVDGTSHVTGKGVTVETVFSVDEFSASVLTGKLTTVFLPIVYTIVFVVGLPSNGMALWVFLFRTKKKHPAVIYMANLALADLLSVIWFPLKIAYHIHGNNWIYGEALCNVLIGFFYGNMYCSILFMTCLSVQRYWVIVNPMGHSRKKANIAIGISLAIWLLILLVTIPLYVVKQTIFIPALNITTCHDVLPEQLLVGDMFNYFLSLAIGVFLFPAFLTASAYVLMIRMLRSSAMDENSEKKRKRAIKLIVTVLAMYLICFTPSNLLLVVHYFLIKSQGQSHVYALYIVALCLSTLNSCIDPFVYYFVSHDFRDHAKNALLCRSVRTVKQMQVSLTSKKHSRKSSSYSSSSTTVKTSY

T2: human PAR-2 (Protease-activated receptor-2) (human, UniProt P55085 37-397)
T2 sequence (looked up): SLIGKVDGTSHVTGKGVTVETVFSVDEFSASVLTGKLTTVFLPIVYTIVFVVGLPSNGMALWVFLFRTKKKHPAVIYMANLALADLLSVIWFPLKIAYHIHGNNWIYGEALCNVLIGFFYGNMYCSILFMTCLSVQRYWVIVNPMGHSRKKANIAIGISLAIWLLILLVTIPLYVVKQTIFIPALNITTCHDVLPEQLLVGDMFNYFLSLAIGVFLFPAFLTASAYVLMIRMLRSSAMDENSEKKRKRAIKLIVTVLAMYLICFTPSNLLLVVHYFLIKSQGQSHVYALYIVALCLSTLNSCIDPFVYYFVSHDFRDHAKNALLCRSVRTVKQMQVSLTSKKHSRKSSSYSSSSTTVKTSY


Key:
[1] = target: human PAR-2 (Protease-activated receptor-2) (human) (UniProt P55085); assay: cell-based or functional assay
PAR-2 [2] = target: T1, PAR-2; assay: Intracellular calcium dynamics assay (modified Hawthorne et al. method) in HCT-15 cells; format: cell-based; parameters: endogenous in cells; host or cells: HCT-15 human colorectal adenocarcinoma cells; conditions: for agonist activation compared with the comparative peptide SLIGKV-OH: HCT-15 cells, calcium assay, statement in words
Source text: The PAR-2 activation of peptide derivatives represented by the general formula (1) can be tested by known various methods. For example, PAR-2 activation of peptide derivates can be tested by the methods namely, “Hollenberg method” (Hollenberg, M. D., et al., Can. J. Physiol. Pharmacol., 75, 832-841 (1997)), “Kawabata et al. method” (Kawabata, A., et al., J. Pharmacol. Exp. Ther., 288, 358-370 (1999)), “Howthorne et al. method” (Howthorne et al., A High-Throughput Microtiter Plate-Based Calcium Assay for the Study of Protease-Activated Receptor 2 Activation, Analytical Biochemistry 290, 378-379 (2001)), and the like. The present inventors tested PAR-2 activation potency by the modified “Hawthorne et al. method”. More specifically the method is to assay intracellular calcium dynamic expressing human PAR-2 inherently. In this assay, under probenecid inhibiting anion-exchange transporter the inventors measured intracellular calcium dynamic mediated PAR-2 agonist(concentration variation) by a multiple-well plate reader wherein introducing Ca^2+ sensitive fluorescent dye and stimulating this cell by PAR-2 agonist.
This method is explained below in more detail.
Thereafter, the cells were stimulated with various concentration test compounds and measured at an excitation wavelength of 485 nm and at a measurement wavelength of 525 nm (cut-off 515 nm) with a fluorometer scanning a multiple well (Flex Station, Molecular Devices). As a comparative compound, SLIGKV-OH which is a known PAR-2 activated peptide was used.

PAR-2 [3] = target: T1, PAR-2; conditions: relative to TRAP (tethered receptor agonist peptide); cited from earlier work
[4] = target: T2, human PAR-2 (Protease-activated …); assay: cell-based or functional assay

Molecule	Agonist activity (EC50, µM); intracellular calcium, HCT-15 cells [1] [µM]	EC50 (PAR-2 [2]) [µM]	further results
2-furoyl-L-phenylalanyl-glycyl-glycyl-β-cyclohexyl-L-alanine 2-(1-piperidinyl)ethyl amide (peptide)	2.9		
2-furoyl-β-cyclohexyl-L-alanyl-glycyl-glycyl-β-cyclohexyl-L-alanine 2-(1-piperidinyl)ethyl amide (peptide)	16.5		
4,5-dimethyl-2-furoyl-β-cyclohexyl-L-alanyl-glycyl-glycyl-β-cyclohexyl-L-alanine 2-(1-piperidinyl)ethyl amide (peptide)	16.5		
5-bromo-2-furoyl-β-cyclohexyl-L-alanyl-glycyl-glycyl-β-cyclohexyl-L-alanine 2-(1-piperidinyl)ethyl amide (peptide)	0.7		
O=C(CNC(=O)[C@H](CC1CCCCC1)NC(=O)c1ccco1)NCC(=O)N[C@@H](CC1CCCCC1)C(=O)NCCN1CCCCC1 [Example 1, 2-furoyl-β-cyclohexyl-L-alanyl-glycyl-glycyl-β-cyclohexyl-L-alanyine 2-(1-piperidinyl)ethyl amide] (2Furoyl-[Cha]GG[Cha]-{NHCH2CH2(piperidin-1-yl)})		16.5 ± 3.4	agonist activation compared with the comparative peptide SLIGKV-OH (PAR-2 [2]): almost same as the comparative peptide
O=C(CNC(=O)[C@H](Cc1ccccc1)NC(=O)c1ccco1)NCC(=O)N[C@@H](CC1CCCCC1)C(=O)NCCN1CCCCC1 [Example 2, 2-furoyl-L-phenylalanyl-glycyl-glycyl-β-cyclohexyl-L-alanine 2-(1-piperidinyl)ethyl amide] (2Furoyl-FGG[Cha]-{NHCH2CH2(piperidin-1-yl)})		2.9 ± 0.6	
O=C(CNC(=O)[C@H](CC1CCCCC1)NC(=O)c1ccc(Br)o1)NCC(=O)N[C@@H](CC1CCCCC1)C(=O)NCCN1CCCCC1 [Example 3, 5-bromo-2-furoyl-β-cyclohexyl-L-alanyl-glycyl-glycyl-β-cyclohexyl-L-alanine 2-(1-piperidinyl)ethyl amide] (X2-[Cha]GG[Cha]-{NHCH2CH2(piperidin-1-yl)})		0.7 ± 0.2	
O=C(CNC(=O)[C@H](CC1CCCCC1)NC(=O)c1cccnc1)NCC(=O)N[C@@H](CC1CCCCC1)C(=O)NCCN1CCCCC1 [Example 4, nicotinoyl-β-cyclohexyl-L-alanyl-glycyl-glycyl-β-cyclohexyl-L-alanine 2-(1-piperidinyl)ethyl amide] (Nicotinoyl-[Cha]GG[Cha]-{NHCH2CH2(piperidin-1-yl)})		1.6 ± 0.1	
O=C(CNC(=O)[C@H](CC1CCCCC1)NC(=O)c1cc2ccccc2o1)NCC(=O)N[C@@H](CC1CCCCC1)C(=O)NCCN1CCCCC1 [Example 5, benzofuran-2-carbonyl-β-cyclohexyl-L-alanyl-glycyl-glycyl-β-cyclohexyl-L-alanine 2-(1-piperidinyl)ethyl amide] ({Benzofuran(2-CO)}-[Cha]GG[Cha]-{NHCH2CH2(piperidin-1-yl)})		0.8 ± 0.2	
O=C(CNC(=O)[C@H](CC1CCCCC1)NC(=O)c1ccon1)NCC(=O)N[C@@H](CC1CCCCC1)C(=O)NCCN1CCCCC1 [Example 6, isoxazole-3-carbonyl-β-cyclohexyl-L-alanyl-glycyl-glycyl-β-cyclohexyl-L-alanine 2-(1-piperidinyl)ethyl amide] ({Isoxazole(3-carbonyl)}-[Cha]GG[Cha]-{NHCH2CH2(piperidin-1-yl)})		6.6 ± 3.1	
O=C(CNC(=O)[C@H](CC1CCCCC1)NC(=O)c1ccccn1)NCC(=O)N[C@@H](CC1CCCCC1)C(=O)NCCN1CCCCC1 [Example 7, picolinoyl-β-cyclohexyl-L-alanyl-glycyl-glycyl-β-cyclohexyl-L-alanine 2-(1-piperidinyl)ethyl amide] (Picolinoyl-[Cha]GG[Cha]-{NHCH2CH2(piperidin-1-yl)})		7.6 ± 2.6	
Cc1cc(C(=O)N[C@@H](CC2CCCCC2)C(=O)NCC(=O)NCC(=O)N[C@@H](CC2CCCCC2)C(=O)NCCN2CCCCC2)oc1C [Example 8, 4,5-dimethyl-2-furoyl-β-cyclohexyl-L-alanyl-glycyl-glycyl-β-cyclohexyl-L-alanine 2-(1-piperidinyl)ethyl amide] (X1-[Cha]GG[Cha]-{NHCH2CH2(piperidin-1-yl)})			agonist activation compared with the comparative peptide SLIGKV-OH (PAR-2 [2]): almost same as the comparative peptide; EC50 (PAR-2 [2]; HCT-15 human colorectal adenocarcinoma cells expressing PAR-2 inherently, Ca2+ sensitive fluorescent dye, 2.5 mM probenecid, read-out: Agonist activity (EC50)): 16.5 ± 2.1 µM
O=C(CNC(=O)[C@H](CC1CCCCC1)NC(=O)c1cnc[nH]1)NCC(=O)N[C@@H](CC1CCCCC1)C(=O)NCCN1CCCCC1 [Example 9, imidazole-4-carbonyl-β-cyclohexyl-L-alanyl-glycyl-glycyl-β-cyclohexyl-L-alanine 2-(1-piperidinyl)ethyl amide] (Imidazole4carbonyl-[Cha]GG[Cha]-{NHCH2CH2(piperidin-1-yl)})		14.9 ± 1.3	agonist activation compared with the comparative peptide SLIGKV-OH (PAR-2 [2]): almost same as the comparative peptide
CC(C)C[C@H](NC(=O)[C@H](CCCNC(=N)N[N+](=O)[O-])NC(=O)c1ccccc1)C(N)=O [N^60-benzoyl-Arg(NO2)-Leu-NH2] (Bz-[Arg(NO2)]-Leu-NH2)			PAR-2 activation, action strength relative to TRAP (PAR-2 [3]): about one of hundred action strength of TRAP
benzofuran-2-carbonyl-β-cyclohexyl-L-alanyl-glycyl-glycyl-β-cyclohexyl-L-alanine 2-(1-piperidinyl)ethyl amide (peptide)	0.8		
imidazole-4-carbonyl-β-cyclohexyl-L-alanyl-glycyl-glycyl-β-cyclohexyl-L-alanine 2-(1-piperidinyl)ethyl amide (peptide)	14.9		
isoxazole-3-carbonyl-β-cyclohexyl-L-alanyl-glycyl-glycyl-β-cyclohexyl-L-alanine 2-(1-piperidinyl)ethyl amide (peptide)	6.6		
nicotinoyl-β-cyclohexyl-L-alanyl-glycyl-glycyl-β-cyclohexyl-L-alanine 2-(1-piperidinyl)ethyl amide (peptide)	1.6		
picolinoyl-β-cyclohexyl-L-alanyl-glycyl-glycyl-β-cyclohexyl-L-alanine 2-(1-piperidinyl)ethyl amide (peptide)	7.6		
SLIGKV-OH [SLIGKV-OH (Ser-Leu-Ile-Gly-Lys-Val-OH)]			Agonist activity (EC50, µM); intracellular calcium, HCT-15 cells [4]: 15.6 µM
